Source: US8147838B2, “Peptide” (priority 2005, dated 2012)

Tested on: PBMCs recovered from TroVax treated patients
Format: cell-based, human
Details: for most likely HLA restriction: from HLA-type frequency among responding patients; for HLA-type distribution among positive proliferative responses: DQ2: responding patients with HLA type DQ2 / all responding patients; for HLA-type distribution among positive proliferative responses: DQ2 / HLA-type distribution among positive proliferative responses: DQ4 / HLA-type distribution among positive proliferative responses: DQ5 / HLA-type distribution among positive proliferative responses: DQ6 / HLA-type distribution among positive proliferative responses: DQ7 / HLA-type distribution among positive proliferative responses: DQ8 / HLA-type distribution among positive proliferative responses: DQ9 / HLA-type distribution among positive proliferative responses: DR1 / HLA-type distribution among positive proliferative responses: DR4 / HLA-type distribution among positive proliferative responses: DR7 / HLA-type distribution among positive proliferative responses: DR8 / HLA-type distribution among positive proliferative responses: DR9 / HLA-type distribution among positive proliferative responses: DR11 / HLA-type distribution among positive proliferative responses: DR13 / HLA-type distribution among positive proliferative responses: DR15 / HLA-type distribution among positive proliferative responses: DR17 / HLA-type distribution among positive proliferative responses: DR51 / HLA-type distribution among positive proliferative responses: DR52 / HLA-type distribution among positive proliferative responses: DR53: PBMCs from TroVax treated patients; for HLA-type distribution among positive proliferative responses: DQ4: responding patients with HLA type DQ4 / all responding patients; for HLA-type distribution among positive proliferative responses: DQ5: responding patients with HLA type DQ5 / all responding patients; for HLA-type distribution among positive proliferative responses: DQ6: responding patients with HLA type DQ6 / all responding patients; for HLA-type distribution among positive proliferative responses: DQ7: responding patients with HLA type DQ7 / all responding patients; for HLA-type distribution among positive proliferative responses: DQ8: responding patients with HLA type DQ8 / all responding patients; for HLA-type distribution among positive proliferative responses: DQ9: responding patients with HLA type DQ9 / all responding patients; for HLA-type distribution among positive proliferative responses: DR1: responding patients with HLA type DR1 / all responding patients; for HLA-type distribution among positive proliferative responses: DR4: responding patients with HLA type DR4 / all responding patients; for HLA-type distribution among positive proliferative responses: DR7: responding patients with HLA type DR7 / all responding patients; for HLA-type distribution among positive proliferative responses: DR8: responding patients with HLA type DR8 / all responding patients; for HLA-type distribution among positive proliferative responses: DR9: responding patients with HLA type DR9 / all responding patients; for HLA-type distribution among positive proliferative responses: DR11: responding patients with HLA type DR11 / all responding patients; for HLA-type distribution among positive proliferative responses: DR13: responding patients with HLA type DR13 / all responding patients; for HLA-type distribution among positive proliferative responses: DR15: responding patients with HLA type DR15 / all responding patients; for HLA-type distribution among positive proliferative responses: DR17: responding patients with HLA type DR17 / all responding patients; for HLA-type distribution among positive proliferative responses: DR51: responding patients with HLA type DR51 / all responding patients; for HLA-type distribution among positive proliferative responses: DR52: responding patients with HLA type DR52 / all responding patients; for HLA-type distribution among positive proliferative responses: DR53: responding patients with HLA type DR53 / all responding patients
[1] = positive proliferative responses

Substance | most likely HLA restriction | HLA-type distribution among positive proliferative responses: DQ2 | HLA-type distribution among positive proliferative responses: DQ4 | HLA-type distribution among positive proliferative responses: DQ5 | HLA-type distribution among positive proliferative responses: DQ6 | HLA-type distribution among positive proliferative responses: DQ7 | HLA-type distribution among positive proliferative responses: DQ8 | HLA-type distribution among positive proliferative responses: DQ9 | HLA-type distribution among positive proliferative responses: DR1 | HLA-type distribution among positive proliferative responses: DR4 | HLA-type distribution among positive proliferative responses: DR7 | HLA-type distribution among positive proliferative responses: DR8 | HLA-type distribution among positive proliferative responses: DR9 | HLA-type distribution among positive proliferative responses: DR11 | HLA-type distribution among positive proliferative responses: DR13 | HLA-type distribution among positive proliferative responses: DR15 | HLA-type distribution among positive proliferative responses: DR17 | HLA-type distribution among positive proliferative responses: DR51 | HLA-type distribution among positive proliferative responses: DR52 | HLA-type distribution among positive proliferative responses: DR53 | also measured
40.2: class II 5T4 20 mer peptide (details in Table 12) (EVVQGKDRLTCAYPEKMRNR) [Peptide 40.2] | DQ6, DR15, DR51, or DR52 | 5/12 | 1/12 | 2/12 | 8/12 | 3/12 | 0/12 | 2/12 | 1/12 | 1/12 | 3/12 | 1/12 | 1/12 | 1/12 | 3/12 | 6/12 | 3/12 | 6/12 | 6/12 | 4/12 | responders with HLA type DQ6 out of all responders [1]: 8 out of 12; responders with HLA type DR15 out of all responders [1]: 6 out of 12; responders with HLA type DR51 out of all responders [1]: 6 out of 12; responders with HLA type DR52 out of all responders [1]: 6 out of 12
44.2: class II 5T4 20 mer peptide (details in Table 12) (DPILPPSLQTSYVFLGIVLA) [Peptide 44.2] | DQ6, DR15, DR51, or DR52 | 3/9 | 0/9 | 3/9 | 5/9 | 3/9 | 0/9 | 1/9 | 2/9 | 1/9 | 0/9 | 0/9 | 1/9 | 1/9 | 1/9 | 5/9 | 3/9 | 5/9 | 5/9 | 2/9 | responders with HLA type DQ6 out of all responders [1]: 5 out of 9; responders with HLA type DR15 out of all responders [1]: 5 out of 9; responders with HLA type DR51 out of all responders [1]: 5 out of 9; responders with HLA type DR52 out of all responders [1]: 5 out of 9
36.2: class II 5T4 20 mer peptide (details in Table 12) (LQGLPHIRVFLDNNPWVCDC) [Peptide 36.2] | DQ2, DR7, or DR53 | 3/7 | 0/7 | 2/7 | 2/7 | 2/7 | 0/7 | 2/7 | 2/7 | 1/7 | 3/7 | 0/7 | 1/7 | 1/7 | 1/7 | 2/7 | 1/7 | 2/7 | 2/7 | 3/7 | responders with HLA type DQ2 out of all responders [1]: 3 out of 7; responders with HLA type DR7 out of all responders [1]: 3 out of 7; responders with HLA type DR53 out of all responders [1]: 3 out of 7
45.2: class II 5T4 20 mer peptide (details in Table 12) (MRNRVLLELNSADLDCDPIL) [Peptide 45.2] | DQ6, DR53, DR15, or DR51 | 3/8 | 0/8 | 2/8 | 5/8 | 3/8 | 0/8 | 0/8 | 2/8 | 3/8 | 2/8 | 0/8 | 0/8 | 0/8 | 1/8 | 4/8 | 1/8 | 4/8 | 2/8 | 5/8 | responders with HLA type DQ6 out of all responders [1]: 5 out of 8; responders with HLA type DR15 out of all responders [1]: 4 out of 8; responders with HLA type DR51 out of all responders [1]: 4 out of 8; responders with HLA type DR53 out of all responders [1]: 5 out of 8
43.2: class II 5T4 20 mer peptide (details in Table 12) (LNSADLDCDPILPPSLQTSY) [Peptide 43.2] | DQ6, DR15, or DR51 | 5/11 | 1/11 | 3/11 | 7/11 | 1/11 | 0/11 | 1/11 | 2/11 | 0/11 | 4/11 | 1/11 | 0/11 | 1/11 | 2/11 | 6/11 | 2/11 | 6/11 | 4/11 | 3/11 | responders with HLA type DQ6 out of all responders [1]: 7 out of 11; responders with HLA type DR15 out of all responders [1]: 6 out of 11; responders with HLA type DR51 out of all responders [1]: 6 out of 11
